Reference: patent publication US11446287B2, “Compounds and methods for EP300 or CBP modulation and indications therefor” (Opna Immuno-Oncology SA, priority 2019, dated 2022)

Target: T1, Recombinant human EP300 containing the bromodomain (EP300-BD (1040-1161)) (Homo sapiens, UniProt Q09472)
T1 construct: Recombinant human EP300 bromodomain (EP300-BD (1040-1161)); made in house; host or cells: E. coli BL21-CodonPlus (DE3), modified pET vector
T1 sequence (Q09472 1040-1161): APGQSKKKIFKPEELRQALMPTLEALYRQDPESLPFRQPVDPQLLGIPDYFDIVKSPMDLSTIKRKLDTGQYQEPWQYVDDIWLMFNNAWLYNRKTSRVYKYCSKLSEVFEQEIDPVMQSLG
Assay: EP300 Alphascreen binding assay
Procedure, shortened: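 Displacement of a biotinylated acetyl-K56 histone H3 peptide from the N-His bromodomain construct (1040-1161) measured by AlphaScreen proximity, beads at 7.5 μg/ml final, read 60 min after addition. Protein, peptide and compound first incubated 1 h at room temperature, pH 7.5 HEPES buffer; IC50 by four-parameter logistic fit.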

Row | Compound | IC50 [µM]
1 | Cc1noc(C)c1-c1cnc2c(c1)c(-c1ccc(C(=O)O)cc1OC(F)(F)F)cn2-c1cnn(CC(C)(C)O)c1 [P-0294, 4-(5-(3,5-dimethylisoxazol-4-yl)-1-(1-(2-hydroxy-2-methylpropyl)-1H-pyrazol-4-yl)-1H-pyrrolo[2,3-b]pyridin-3-yl)-3-(trifluoromethoxy)benzoic acid] | 0.0001 to 1
2 | CCOc1cc(C(=O)O)ncc1-c1cn(-c2ccc(F)cc2F)c2ncc(-c3c(C)noc3C)cc12 [P-0295, 5-(1-(2,4-difluorophenyl)-5-(3,5-dimethylisoxazol-4-yl)-1H-pyrrolo[2,3-b]pyridin-3-yl)-4-ethoxypicolinic acid] | 0.0001 to 1
3 | CCOc1c(F)c(C(=O)O)c(F)c(OCC)c1-c1cn(-c2ccc(F)cc2F)c2ncc(-c3c(C)noc3C)cc12 [P-0296, 4-(1-(2,4-difluorophenyl)-5-(3,5-dimethylisoxazol-4-yl)-1H-pyrrolo[2,3-b]pyridin-3-yl)-3,5-diethoxy-2,6-difluorobenzoic acid] | 0.0001 to 1
4 | CCOc1cc(C(=O)O)c(F)c(OCC)c1-c1cn(-c2ccc(F)cc2F)c2ncc(-c3c(C)noc3C)cc12 [P-0297, 4-(1-(2,4-difluorophenyl)-5-(3,5-dimethylisoxazol-4-yl)-1H-pyrrolo[2,3-b]pyridin-3-yl)-3,5-diethoxy-2-fluorobenzoic acid] | 0.0001 to 1
5 | Cc1noc(C)c1-c1cnc2c(-c3ccccc3)cn(-c3c(OCC(F)(F)F)cc(C(=O)O)cc3OCC(F)(F)F)c2c1 [P-0298, 4-(6-(3,5-dimethylisoxazol-4-yl)-3-phenyl-1H-pyrrolo[3,2-b]pyridin-1-yl)-3,5-bis(2,2,2-trifluoroethoxy)benzoic acid] | 0.0001 to 1
6 | Cc1noc(C)c1-c1cnc2c(c1)c(-c1ccc(C(=O)O)cc1OC(C)C)cn2-c1cnn(CC(C)(C)O)c1 [P-0299, 4-(5-(3,5-dimethylisoxazol-4-yl)-1-(1-(2-hydroxy-2-methylpropyl)-1H-pyrazol-4-yl)-1H-pyrrolo[2,3-b]pyridin-3-yl)-3-isopropoxybenzoic acid] | 0.0001 to 1
7 | Cc1noc(C)c1-c1cnc2c(c1)c(-c1ccc(C(=O)O)cc1OC(C)C)cn2-c1cnc(N2CCC2)nc1 [P-0300, 4-(1-(2-(azetidin-1-yl)pyrimidin-5-yl)-5-(3,5-dimethylisoxazol-4-yl)-1H-pyrrolo[2,3-b]pyridin-3-yl)-3-isopropoxybenzoic acid] | 0.0001 to 1
8 | Cc1noc(C)c1-c1cnc2c(c1)c(-c1ccc(C(=O)O)cc1OC(C)C)cn2[C@H]1CCOC1 [P-0301, (S)-4-(5-(3,5-dimethylisoxazol-4-yl)-1-(tetrahydrofuran-3-yl)-1H-pyrrolo[2,3-b]pyridin-3-yl)-3-isopropoxybenzoic acid] | 0.0001 to 1
9 | Cc1noc(C)c1-c1cnc2c(c1)c(-c1ccc(S(C)(=O)=O)cc1OC(C)C)cn2-c1ccccc1 [P-0302, 4-(3-(2-isopropoxy-4-(methylsulfonyl)phenyl)-1-phenyl-1H-pyrrolo[2,3-b]pyridin-5-yl)-3,5-dimethylisoxazole] | 0.0001 to 1
10 | CCCn1nc(C(=O)O)c(N)c1-c1cn(-c2ccc(F)cc2F)c2ncc(-c3c(C)noc3C)cc12 [P-0303, 4-amino-5-(1-(2,4-difluorophenyl)-5-(3,5-dimethylisoxazol-4-yl)-1H-pyrrolo[2,3-b]pyridin-3-yl)-1-propyl-1H-pyrazole-3-carboxylic acid] | 0.0001 to 1
11 | CCCn1nc(C(=O)O)c(NCC)c1-c1cn(-c2ccc(F)cc2F)c2ncc(-c3c(C)noc3C)cc12 [P-0304, 5-(1-(2,4-difluorophenyl)-5-(3,5-dimethylisoxazol-4-yl)-1H-pyrrolo[2,3-b]pyridin-3-yl)-4-(ethylamino)-1-propyl-1H-pyrazole-3-carboxylic acid] | 0.0001 to 1
12 | Cc1nnn(C)c1-c1cnc2c(c1)c(-c1ccc(C(=O)O)cc1OC(F)(F)F)cn2CC/C=C/C1CC1 [P-0305, (E)-4-(1-(4-cyclopropylbut-3-en-1-yl)-5-(1,4-dimethyl-1H-1,2,3-triazol-5-yl)-1H-pyrrolo[2,3-b]pyridin-3-yl)-3-(trifluoromethoxy)benzoic acid] | 0.0001 to 1
13 | Cc1noc(C)c1-c1cnc2c(c1)c(-c1ccc(C(=O)O)cc1OCC(F)F)cn2-c1ccncc1Cl [P-0306, 4-(1-(3-chloropyridin-4-yl)-5-(3,5-dimethylisoxazol-4-yl)-1H-pyrrolo[2,3-b]pyridin-3-yl)-3-(2,2-difluoroethoxy)benzoic acid] | 0.0001 to 1
14 | Cc1noc(C)c1-c1cnc2c(c1)c(-c1ccc(C(=O)O)cc1OC(F)(F)F)cn2-c1ccccc1Cl [P-0307, 4-(1-(2-chlorophenyl)-5-(3,5-dimethylisoxazol-4-yl)-1H-pyrrolo[2,3-b]pyridin-3-yl)-3-(trifluoromethoxy)benzoic acid] | 0.0001 to 1
15 | Cc1noc(C)c1-c1cnc2c(c1)c(-c1ccc(C(=O)O)cc1OC(F)(F)F)cn2-c1ccccc1C1CC1 [P-0308, 4-(1-(2-cyclopropylphenyl)-5-(3,5-dimethylisoxazol-4-yl)-1H-pyrrolo[2,3-b]pyridin-3-yl)-3-(trifluoromethoxy)benzoic acid] | 0.0001 to 1
16 | Cc1noc(C)c1-c1cnc2c(c1)c(-c1ccc(C(=O)O)cc1OC(F)(F)F)cn2-c1ccccc1C#N [P-0309, 4-(1-(2-cyanophenyl)-5-(3,5-dimethylisoxazol-4-yl)-1H-pyrrolo[2,3-b]pyridin-3-yl)-3-(trifluoromethoxy)benzoic acid] | 0.0001 to 1
17 | Cc1cc(C#N)ccc1-n1cc(-c2ccc(C(=O)O)cc2OC(F)(F)F)c2cc(-c3c(C)noc3C)cnc21 [P-0310, 4-(1-(4-cyano-2-methylphenyl)-5-(3,5-dimethylisoxazol-4-yl)-1H-pyrrolo[2,3-b]pyridin-3-yl)-3-(trifluoromethoxy)benzoic acid] | 0.0001 to 1
18 | COc1ccc(-n2cc(-c3ccc(C(=O)O)cc3OC(F)(F)F)c3cc(-c4c(C)noc4C)cnc32)c(F)c1 [P-0311, 4-(5-(3,5-dimethylisoxazol-4-yl)-1-(2-fluoro-4-methoxyphenyl)-1H-pyrrolo[2,3-b]pyridin-3-yl)-3-(trifluoromethoxy)benzoic acid] | 0.0001 to 1
19 | C=C(C)c1ccccc1-n1cc(-c2ccc(C(=O)O)cc2OC(F)(F)F)c2cc(-c3c(C)noc3C)cnc21 [P-0312, 4-(5-(3,5-dimethylisoxazol-4-yl)-1-(2-(prop-1-en-2-yl)phenyl)-1H-pyrrolo[2,3-b]pyridin-3-yl)-3-(trifluoromethoxy)benzoic acid] | 0.0001 to 1
20 | Cc1noc(C)c1-c1cnc2c(c1)c(-c1ccc(C(=O)O)cc1OC(F)(F)F)cn2-c1ccc(C#N)cc1 [P-0313, 4-(1-(4-cyanophenyl)-5-(3,5-dimethylisoxazol-4-yl)-1H-pyrrolo[2,3-b]pyridin-3-yl)-3-(trifluoromethoxy)benzoic acid] | 0.0001 to 1
21 | Cc1noc(C)c1-c1cnc2c(c1)c(-c1ccc(C(=O)O)cc1OC(F)(F)F)cn2-c1ccc(C(C)(C)O)cc1 [P-0314, 4-(5-(3,5-dimethylisoxazol-4-yl)-1-(4-(2-hydroxypropan-2-yl)phenyl)-1H-pyrrolo[2,3-b]pyridin-3-yl)-3-(trifluoromethoxy)benzoic acid] | 0.0001 to 1
22 | Cc1noc(C)c1-c1cnc2c(c1)c(-c1ccc(C(=O)O)cc1OC(F)(F)F)cn2-c1ccsc1 [P-0315, 4-(5-(3,5-dimethylisoxazol-4-yl)-1-(thiophen-3-yl)-1H-pyrrolo[2,3-b]pyridin-3-yl)-3-(trifluoromethoxy)benzoic acid] | 0.0001 to 1
